Results reported in patent publication US4588720A, “Imidazo[1,2-a]pyrimidines” (Roussel Uclaf, priority 1982, dated 1986).

Tests used:
[1] = Anxiolytic activity, Geller conflict method (Geller and Seifter); assay type: in vivo; settings: po; modified Geller and Seifter conflict method; read-out: Geller Conflict (MED mg/kg po), minimum effective dose at which there was an observed increase in shocks above control
Procedure: Screening for anxiolytic activity was carried out by modifications of the conflict method of Geller and Seifter (Psychopharmacologia, (1960), Volume I, p. 482). The values given in Table VI are the minimum effective doses at which there was an observed increase in shocks above control (MED me/kg po).

benzodiazepine receptors = assay: Affinity for benzodiazepine receptors ([3H] flunitrazepam radioreceptor binding); settings: inhibition of specific binding of 0.6 nM [^3 H] flunitrazepam, rat forebrain membrane preparations; read-out: Receptor Binding (IC50 nM)
Procedure: A. Affinity for benzodiazepine receptors
The affinity of the compounds for benzodiazepine receptors was assessed using the radioligand [^3 H] flunitrazepam and modifications of the original radioreceptor binding method of Squares and Braestrup (Nature, Vol. 266 (1977) p. 732). The values given in Table VI are nanomolar concentrations of test compound which inhibited the specific binding of 0.6 nM[^3 H] flunitrazepam to rat forebrain membrain preparations by 50% (IC50 nM).

**Q.** For COc1ccn2cc(C(=O)c3ccccc3)nc2n1 [Example 28, [7-Methoxyimidazo[1,2-a]pyrimidin-2-yl]phenylmethanone], which minimal effective dose [1] is on record?
**A.** 50 mg/kg

**Q.** And the IC50 (benzodiazepine receptors)?
**A.** 8500 nM

**Q.** With CCc1c(C)c(OC)nc2nc(C(=O)c3ccccc3)cn12 [Example 29, [5-Ethyl-7-methoxy-6-methylimidazo[1,2-a]pyrimidin-2-yl]phenylmethanone] as the molecule, how does the minimal effective dose [1] read?
**A.** 20 mg/kg

**Q.** What about the IC50 (benzodiazepine receptors) of the same molecule?
**A.** 1000 nM

**Q.** What does the source list for CCCCc1c(OC)nc2nc(C(=O)c3ccccc3)cn2c1C [Example 30, [6-n-Butyl-7-methoxy-5-methylimidazo[1,2-]pyrimidin-2-yl]phenylmethanone]?
**A.** minimal effective dose [1]: 2 mg/kg; IC50 (benzodiazepine receptors): 42 nM

**Q.** What does the source list for CCc1c(OC)nc2nc(C(=O)c3ccccc3)cn2c1CC [Example 31, [5,6-Diethyl-7-methoxyimidazo[1,2-a]pyrimidin-2-yl]phenylmethanone]?
**A.** minimal effective dose [1]: 2 mg/kg; IC50 (benzodiazepine receptors): 107 nM

**Q.** Which minimal effective dose [1] does the source give for CCCc1c(OC)nc2nc(C(=O)c3ccccc3)cn2c1C [Example 32, [7-Methoxy-5-methyl-6-n-propylimidazo[1,2-a]pyrimidin-2-yl]phenylmethanone] here?
**A.** 5 mg/kg

**Q.** What about the IC50 (benzodiazepine receptors) of the same molecule?
**A.** 85 nM

**Q.** Which minimal effective dose [1] does the source give for CCCc1c(OC)nc2nc(C(=O)c3ccccc3)cn2c1CCC [Example 33, [7-Methoxy-5,6-di-n-propylimidazo[1,2-a]pyrimidin-2-yl]phenylmethanone] here?
**A.** 50 mg/kg

**Q.** What about the IC50 (benzodiazepine receptors) of the same molecule?
**A.** 1250 nM

**Q.** With CCCCc1c(OC)nc2nc(C(=O)c3ccccc3)cn2c1CCC [Example 34, [6-n-Butyl-7-methoxy-5-n-propylimidazo[1,2-a]pyrimidin-2-yl]phenylmethanone] as the molecule, how does the minimal effective dose [1] read?
**A.** 50 mg/kg

**Q.** What about the IC50 (benzodiazepine receptors) of the same molecule?
**A.** 710 nM

**Q.** For CCCc1c(OC)nc2nc(C(=O)c3ccccc3)cn2c1CC [Example 35, [5-Ethyl-7-methoxy-6-n-propylimidazo[1,2-a]pyrimidin-2-yl]phenylmethanone], which minimal effective dose [1] is on record?
**A.** 10 mg/kg

**Q.** What about the IC50 (benzodiazepine receptors) of the same molecule?
**A.** 34 nM

**Q.** What does the source list for CCCCc1c(OC)nc2nc(C(=O)c3ccccc3)cn2c1CC [Example 36, [6-n-Butyl-5-ethyl-7-methoxy-imidazo[1,2-a]pyrimidin-2-yl]phenylmethanone]?
**A.** minimal effective dose [1]: 10 mg/kg; IC50 (benzodiazepine receptors): 34 nM

**Q.** With C=CCc1c(OC)nc2nc(C(=O)c3ccccc3)cn2c1CCC [Example 37, [6-Allyl-7-methoxy-5-n-propylimidazo[1,2-a]pyrimidin-2-yl]phenylmethanone] as the molecule, how does the minimal effective dose [1] read?
**A.** 50 mg/kg

**Q.** And the IC50 (benzodiazepine receptors)?
**A.** 135 nM

**Q.** For CCc1cn2cc(C(=O)c3ccccc3)nc2nc1OC [Example 38, [6-Ethyl-7-methoxyimidazo[1,2-a]pyrimidin-2-yl]phenylmethanone], which minimal effective dose [1] is on record?
**A.** 5 mg/kg

**Q.** What about the IC50 (benzodiazepine receptors) of the same molecule?
**A.** 1500 nM

**Q.** Which minimal effective dose [1] does the source give for CCCCc1c(C)c(OC)nc2nc(C(=O)c3ccccc3)cn12 [Example 39, [5-n-Butyl-7-methoxy-6-methylimidazo[1,2-a]pyrimidin-2-yl]phenylmethanone] here?
**A.** 50 mg/kg

**Q.** What about the IC50 (benzodiazepine receptors) of the same molecule?
**A.** 400 nM

**Q.** What does the source list for CCCc1cn2cc(C(=O)c3ccccc3)nc2nc1OC [Example 40, [7-Methoxy-6-n-propylimidazo[1,2-a]pyrimidin-2-yl]phenylmethanone]?
**A.** minimal effective dose [1]: 50 mg/kg; IC50 (benzodiazepine receptors): 1900 nM

**Q.** For CCCCc1cn2cc(C(=O)c3ccccc3)nc2nc1OC [Example 41, [6-n-Butyl-7-methoxyimidazo[1,2-a]pyrimidin-2-yl]phenylmethanone], which minimal effective dose [1] is on record?
**A.** 50 mg/kg

**Q.** What about the IC50 (benzodiazepine receptors) of the same molecule?
**A.** 300 nM

**Q.** With COc1nc2nc(C(=O)c3ccccc3)cn2cc1C [Example 42, [7-Methoxy-6-methylimidazo[1,2-a]pyrimidin-2-yl]phenylmethanone] as the molecule, how does the minimal effective dose [1] read?
**A.** 50 mg/kg

**Q.** And the IC50 (benzodiazepine receptors)?
**A.** 5900 nM

**Q.** With CCCCc1cc(OC)nc2nc(C(=O)c3ccccc3)cn12 [Example 43, [5-n-Butyl-7-methoxyimidazo[1,2-a]pyrimidin-2-yl]phenylmethanone] as the molecule, how does the minimal effective dose [1] read?
**A.** 10 mg/kg

**Q.** And the IC50 (benzodiazepine receptors)?
**A.** 340 nM

**Q.** Which results are given for C=CCc1c(OC)nc2nc(C(=O)c3ccccc3)cn2c1CC [Example 44, [6-Allyl-5-ethyl-7-methoxyimidazo[1,2-a]pyrimidin-2-yl]phenylmethanone]?
**A.** minimal effective dose [1]: 10 mg/kg; IC50 (benzodiazepine receptors): 42 nM

**Q.** With CCCCc1c(CC)c(OC)nc2nc(C(=O)c3ccccc3)cn12 [Example 45, [5-n-Butyl-6-ethyl-7-methoxyimidazo[1,2-a]pyrimidin-2-yl]phenylmethanone] as the molecule, how does the minimal effective dose [1] read?
**A.** 50 mg/kg

**Q.** And the IC50 (benzodiazepine receptors)?
**A.** 500 nM

**Q.** With CCCCc1c(CCC)c(OC)nc2nc(C(=O)c3ccccc3)cn12 [Example 46, [5-n-Butyl-7-methoxy-6-n-propylimidazo[1,2-a]pyrimidin-2-yl]phenylmethanone] as the molecule, how does the minimal effective dose [1] read?
**A.** 20 mg/kg

**Q.** What about the IC50 (benzodiazepine receptors) of the same molecule?
**A.** 1200 nM

**Q.** Which results are given for CCCCCc1c(OC)nc2nc(C(=O)c3ccccc3)cn2c1C [Example 47, [7-Methoxy-5-methyl-6-n-pentylimidazo[1,2-a]pyrimidin-2-yl]phenylmethanone]?
**A.** minimal effective dose [1]: 20 mg/kg; IC50 (benzodiazepine receptors): 107 nM

**Q.** For COc1nc2nc(C(=O)c3ccccc3)cn2c(C)c1CC(C)C [Example 48, [6-iso-Butyl-7-methoxy-5-methylimidazo[1,2-a]pyrimidin-2-yl]phenylmethanone], which minimal effective dose [1] is on record?
**A.** 20 mg/kg

**Q.** What about the IC50 (benzodiazepine receptors) of the same molecule?
**A.** 400 nM

**Q.** With CCc1c(SC)nc2nc(C(=O)c3ccccc3)cn2c1C [Example 49, [6-ethyl-5-methyl-7-(methylthio)imidazo[1,2-a]pyrimidin-2-yl]phenylmethanone] as the molecule, how does the minimal effective dose [1] read?
**A.** 2 mg/kg

**Q.** And the IC50 (benzodiazepine receptors)?
**A.** 12 nM

**Q.** Which minimal effective dose [1] does the source give for CCc1c(OC)nc2nc(C(=O)c3ccc(OC)cc3)cn2c1C [Example 54, (6-Ethyl-7-methoxy-5-methylimidazo[1,2-a]pyrimidin-2-yl)(4-methoxyphenyl)methanone] here?
**A.** 10 mg/kg

**Q.** What about the IC50 (benzodiazepine receptors) of the same molecule?
**A.** 59 nM

**Q.** Which minimal effective dose [1] does the source give for CCc1c(OC)nc2nc(C(=O)c3ccc(Cl)cc3)cn2c1C [Example 55, (6-ethyl 7-methoxy 5-methylimidazo/1,2-a/pyrimidin-2-yl)(4-chlorophenyl)methanone] here?
**A.** 50 mg/kg

**Q.** What about the IC50 (benzodiazepine receptors) of the same molecule?
**A.** 85 nM

**Q.** Which minimal effective dose [1] does the source give for CCc1c(OC)nc2nc(C(=O)c3ccc(C)cc3)cn2c1C [Example 56, (6-ethyl 7-methoxy 5-methylimidazo/1,2-a/pyrimidin-2-yl)(4-methylphenyl)methanone] here?
**A.** 50 mg/kg

**Q.** What about the IC50 (benzodiazepine receptors) of the same molecule?
**A.** 68 nM

**Q.** With CCc1c(OC)nc2nc(C(=O)c3ccccc3Cl)cn2c1C [Example 57, (6-ethyl 7-methoxy 5-methylimidazo/1,2-a/pyrimidin-2-yl)(2-chlorophenyl)methanone] as the molecule, how does the minimal effective dose [1] read?
**A.** 50 mg/kg

**Q.** And the IC50 (benzodiazepine receptors)?
**A.** 100 nM

**Q.** For CCc1c(OC)nc2nc(C(=O)c3cccc(OC)c3)cn2c1C [Example 58, (6-ethyl 7-methoxy 5-methylimidazo/1,2-a/pyrimidin-2-yl)(3-methoxyphenyl)methanone], which minimal effective dose [1] is on record?
**A.** 50 mg/kg

**Q.** What about the IC50 (benzodiazepine receptors) of the same molecule?
**A.** 500 nM

**Q.** Which results are given for CCc1c(OC)nc2nc(C(=O)c3ccc(SC)cc3)cn2c1C [Example 59, (6-ethyl 7-methoxy 5-methylimidazo/1,2-a/pyrimidin-2-yl)(4-methylthiophenyl)methanone]?
**A.** minimal effective dose [1]: 50 mg/kg; IC50 (benzodiazepine receptors): 300 nM
